Read-outs that look alike come from different tables or passages of the source.
Experiments:
human topoisomerase IIα = target: T1, human topoisomerase IIα (Homo sapiens, UniProt P11388); test: human topoisomerase II alpha relaxation high-throughput assay (selectivity); format: biochemical; details: residual activity at 100 µM compound; mean ± SD, two independent experiments; read-out: Human TopoIIα (% RA at 100 µM)
T1 construct: purchased Inspiralis (Norwich, UK)
Method: For selectivity determination, a human topoisomerase II alpha relaxation high-throughput assay was used. The assay kits and black streptavidin-coated 96-well microtiter plates are available from Inspiralis (Norwich, UK). Two independent measurements were performed with an inhibitory concentration of 100 µM. Raw data were calculated as the mean ± SD percentage of the residual enzyme activity.

E. coli topoIV = target: T2, E. coli topoIV (Escherichia coli, UniProt P0AFI2); test: topoIV relaxation inhibition assay (high-throughput plate assay); format: biochemical
T2 construct: purchased Inspiralis (Norwich, UK)
Method: (§1) To determine the IC50 values of the compounds for S. aureus and E. coli, a DNA gyrase supercoiling high-throughput plate assay and a topoIV relaxation high-throughput plate assay were performed. Assay kits and black streptavidin-coated 96-well microtiter plates are available from Inspiralis (Norwich, UK). For pre-screening, an inhibitor concentration of 100 μM was used. […] A nonlinear regression-based fit of the inhibition curves was used, with the log [inhibitor] versus slope of the reaction variables (four parameters) and a symmetric equation. […] To determine IC50 values, two independent repetitions were performed and the average was calculated.

E. coli D22 = test: MIC, broth microdilution; format: cell-based; details: Escherichia coli
Method: (§2) For the determination of minimum inhibitory concentrations (MIC), the broth microdilution method was used in 96-well plate format, according to the guidelines of the Clinical and Laboratory Standards Institute and the recommendations of the European Committee on Antimicrobial Susceptibility Testing (EUCAST). The dilutions of the bacterial suspension of the specific bacterial strain, corresponding to the 0.5 McFarland turbidity standard, were prepared with […] Mueller–Hinton broth with TES (Thermo Fisher Scientific) to obtain an end inoculum of 10^5 CFU/mL. The compounds were dissolved in DMSO and mixed with the inoculum. […] The MIC was determined as the lowest concentration of antibiotic that prevented visible bacterial growth. Tetracycline was used as a positive control on each test plate.

S. aureus (ATCC 29213) = test: MIC, broth microdilution; format: cell-based
Method: as §2

K. pneumoniae = test: MIC, broth microdilution; format: cell-based
Method: as §2

E. coli (ATCC 25922) = test: MIC, broth microdilution; format: cell-based
Method: as §2

A. baumannii = test: MIC, broth microdilution; format: cell-based
Method: as §2

E. faecalis RDK 057 = test: MIC, broth microdilution; format: cell-based
Method: as §2

E. coli ESBL QA-11.3 = test: MIC, broth microdilution; format: cell-based
Method: as §2

E. coli N43 (CGSC# 5583) = test: MIC, broth microdilution; format: cell-based; details: Escherichia coli
Method: as §2

P. aeruginosa RDK 184 = test: MIC, broth microdilution; format: cell-based
Method: as §2

[1] = Metabolic activity assessment (cytotoxicity), CellTiter 96 Aqueous One; format: cell-based; details: human, 72 h treatment, means of three independent measurements ± SD
Method: HUVEC (ATCC® CRL-1730™) and HepG2 (ATCC® HB-8065™) cell lines were cultured in Dulbecco’s Modified Eagle Medium (DMEM; Sigma-Aldrich, St. Louis, MO, USA) supplemented with 10% heat-deactivated FBS (Gibco, Grand Island, NE, USA), 2 mM L-glutamine, 100 U/mL penicillin, 100 μg/mL streptomycin (all from Sigma-Aldrich, St. Louis, MO, USA) in a humidified chamber at 37 °C and 5% CO2. The experiments were carried out on passages 4–7 for both cell lines. The tested compounds were dissolved in DMSO and further diluted in culture medium to a desired final concentration. The cells were then seeded into 96-well plates at 5 × 10^4 cells/mL (100 μL/well) or 8 × 10^4 cells/mL (100 μL/well) for HUVEC and HepG2, respectively. The cells were then incubated for 24 h to allow attachment onto the wells. The cells were treated with 1 μM and 50 μM of each compound of interest, or the corresponding vehicle as control. […] Their metabolic activity was assessed after 72 h treatment using a CellTiter 96 Aqueous One Solution Cell Proliferation Assay (Promega, Madison, WI, USA), in accordance with the manufacturer’s instructions. The absorbance was measured at 492 nm on an automated microplate reader, Tecan Spark (Tecan Group Ltd., Männedorf, CH, Switzerland). Data are presented as the percentage of metabolic activity of control cells stimulated with vehicle, or as an IC50 value (mean ± SD) from three independent experiments, each conducted in triplicate (for screening) or duplicate (for IC50 determination). IC50 values were calculated using a non-linear regression model and with Graph Pad Prism 9 software.

S. aureus topoIV = target: T3, S. aureus topoIV (Staphylococcus aureus, UniProt P0C1U9); test: biochemical; details: relaxation inhibition; mean of two independent measurements ± SD
T3 construct: purchased Inspiralis (Norwich, UK)
Method: as §1

S. aureus DNA gyrase = target: T4, S. aureus DNA gyrase (Staphylococcus aureus, UniProt P20831); test: biochemical; details: supercoiling inhibition; mean of two independent measurements ± SD
T4 construct: purchased Inspiralis (Norwich, UK)
Method: as §1

E. coli DNA gyrase = target: T5, E. coli DNA gyrase (Escherichia coli, UniProt P0AES4); test: DNA gyrase supercoiling inhibition assay (high-throughput plate assay); format: biochemical
T5 construct: purchased Inspiralis (Norwich, UK)
Method: as §1

[2] = read-out: MIC E. coli N43 (CGSC# 5583)
[3] = D22, 20 h, read-out: MIC (μM) E. coli D22
[4] = Staphylococcus aureus, ATCC29213, 20 h, read-out: MIC (μM) S. aureus (ATCC 29213)
[5] = Staphylococcus aureus, ATCC29213, read-out: MIC S. aureus (ATCC 29213)
[6] = Klebsiella pneumoniae, 20 h, read-out: MIC (μM) K. pneumoniae
[7] = Klebsiella pneumoniae, read-out: MIC K. pneumoniae
[8] = Escherichia coli, ATCC25922, 20 h, read-out: MIC (μM) E. coli (ATCC 25922)
[9] = Escherichia coli, ATCC25922, read-out: MIC E. coli (ATCC 25922)
[10] = Acinetobacter baumannii, 20 h, read-out: MIC (μM) A. baumannii
[11] = Acinetobacter baumannii, read-out: MIC A. baumannii
[12] = Enterococcus faecalis, RDK057, read-out: MIC (μM) E. faecalis DRK 057
[13] = Enterococcus faecalis, RDK057, read-out: MIC E. faecalis RDK 057
[14] = Escherichia coli, ESBLQA11.3, 20 h, read-out: MIC (μM) E. coli ESBL QA:11.3
[15] = Escherichia coli, ESBLQA11.3, read-out: MIC E. coli ESBL QA-11.3
[16] = 20 h, read-out: MIC (μM) E. coli N43
[17] = Pseudomonas aeruginosa, RDK184, 20 h, read-out: MIC (μM) P. aeruginosa RDK 184
[18] = Pseudomonas aeruginosa, RDK184, read-out: MIC P. aeruginosa RDK 184

T1 sequence (P11388 whole entry): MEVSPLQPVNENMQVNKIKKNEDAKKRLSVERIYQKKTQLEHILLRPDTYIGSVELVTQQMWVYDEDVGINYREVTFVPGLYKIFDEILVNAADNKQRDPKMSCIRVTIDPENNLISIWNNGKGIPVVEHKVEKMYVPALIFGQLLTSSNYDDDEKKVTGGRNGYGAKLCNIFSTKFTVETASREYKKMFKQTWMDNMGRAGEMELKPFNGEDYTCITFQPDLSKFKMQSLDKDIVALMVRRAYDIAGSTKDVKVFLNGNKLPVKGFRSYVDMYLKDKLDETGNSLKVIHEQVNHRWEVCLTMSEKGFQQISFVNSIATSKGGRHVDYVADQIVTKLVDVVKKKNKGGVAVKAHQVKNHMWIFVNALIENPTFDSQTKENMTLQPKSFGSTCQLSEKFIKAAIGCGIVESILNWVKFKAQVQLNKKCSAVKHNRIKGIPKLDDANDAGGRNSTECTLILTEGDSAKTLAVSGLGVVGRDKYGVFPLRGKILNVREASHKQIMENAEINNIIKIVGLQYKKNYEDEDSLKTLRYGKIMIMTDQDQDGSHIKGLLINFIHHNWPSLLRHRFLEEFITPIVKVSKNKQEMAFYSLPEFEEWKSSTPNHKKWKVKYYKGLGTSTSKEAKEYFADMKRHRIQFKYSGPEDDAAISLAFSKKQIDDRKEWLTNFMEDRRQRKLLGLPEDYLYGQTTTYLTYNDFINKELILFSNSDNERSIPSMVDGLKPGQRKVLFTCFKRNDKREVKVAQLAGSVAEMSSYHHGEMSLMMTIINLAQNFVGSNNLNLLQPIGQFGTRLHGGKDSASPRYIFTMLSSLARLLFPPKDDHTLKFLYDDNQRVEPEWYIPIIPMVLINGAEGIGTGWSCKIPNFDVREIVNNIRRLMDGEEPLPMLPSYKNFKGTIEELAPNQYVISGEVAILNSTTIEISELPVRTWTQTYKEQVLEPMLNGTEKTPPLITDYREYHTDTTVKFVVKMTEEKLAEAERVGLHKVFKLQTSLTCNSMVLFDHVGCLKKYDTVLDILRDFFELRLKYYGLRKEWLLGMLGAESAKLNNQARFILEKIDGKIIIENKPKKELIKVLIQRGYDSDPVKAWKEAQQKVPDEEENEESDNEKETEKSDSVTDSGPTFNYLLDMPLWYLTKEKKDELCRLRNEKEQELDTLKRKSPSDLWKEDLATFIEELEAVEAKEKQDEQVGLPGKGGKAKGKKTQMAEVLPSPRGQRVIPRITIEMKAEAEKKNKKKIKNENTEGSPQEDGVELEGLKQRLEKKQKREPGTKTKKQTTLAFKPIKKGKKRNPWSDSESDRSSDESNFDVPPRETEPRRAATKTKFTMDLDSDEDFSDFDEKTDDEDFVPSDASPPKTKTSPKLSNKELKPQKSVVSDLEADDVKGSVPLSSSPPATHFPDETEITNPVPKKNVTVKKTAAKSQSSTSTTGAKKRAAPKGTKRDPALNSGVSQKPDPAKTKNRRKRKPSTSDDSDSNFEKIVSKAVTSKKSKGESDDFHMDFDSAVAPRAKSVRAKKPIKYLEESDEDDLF
T5 sequence (P0AES4 whole entry): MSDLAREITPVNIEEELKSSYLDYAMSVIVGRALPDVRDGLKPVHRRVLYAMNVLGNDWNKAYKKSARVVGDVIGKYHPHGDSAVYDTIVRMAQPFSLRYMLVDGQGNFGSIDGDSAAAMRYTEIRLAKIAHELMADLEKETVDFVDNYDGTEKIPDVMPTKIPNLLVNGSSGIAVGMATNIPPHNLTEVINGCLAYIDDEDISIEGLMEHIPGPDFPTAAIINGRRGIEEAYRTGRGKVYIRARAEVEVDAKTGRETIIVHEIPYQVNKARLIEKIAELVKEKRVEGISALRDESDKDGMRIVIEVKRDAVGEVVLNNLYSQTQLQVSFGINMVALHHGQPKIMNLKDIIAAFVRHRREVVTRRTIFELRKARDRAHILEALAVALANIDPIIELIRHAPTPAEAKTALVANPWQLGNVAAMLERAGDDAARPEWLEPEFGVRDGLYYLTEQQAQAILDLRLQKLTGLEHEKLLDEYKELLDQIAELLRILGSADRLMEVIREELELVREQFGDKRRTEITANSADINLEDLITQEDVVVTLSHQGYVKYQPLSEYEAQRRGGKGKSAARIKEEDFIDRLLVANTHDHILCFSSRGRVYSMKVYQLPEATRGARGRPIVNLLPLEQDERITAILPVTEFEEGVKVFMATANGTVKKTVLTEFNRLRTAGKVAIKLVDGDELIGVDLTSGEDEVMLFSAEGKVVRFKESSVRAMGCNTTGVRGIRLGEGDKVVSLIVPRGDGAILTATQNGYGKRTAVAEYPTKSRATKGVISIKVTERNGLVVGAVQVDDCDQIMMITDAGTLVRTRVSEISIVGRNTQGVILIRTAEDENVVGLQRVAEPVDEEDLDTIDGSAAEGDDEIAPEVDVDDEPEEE
T3 sequence (P0C1U9 whole entry): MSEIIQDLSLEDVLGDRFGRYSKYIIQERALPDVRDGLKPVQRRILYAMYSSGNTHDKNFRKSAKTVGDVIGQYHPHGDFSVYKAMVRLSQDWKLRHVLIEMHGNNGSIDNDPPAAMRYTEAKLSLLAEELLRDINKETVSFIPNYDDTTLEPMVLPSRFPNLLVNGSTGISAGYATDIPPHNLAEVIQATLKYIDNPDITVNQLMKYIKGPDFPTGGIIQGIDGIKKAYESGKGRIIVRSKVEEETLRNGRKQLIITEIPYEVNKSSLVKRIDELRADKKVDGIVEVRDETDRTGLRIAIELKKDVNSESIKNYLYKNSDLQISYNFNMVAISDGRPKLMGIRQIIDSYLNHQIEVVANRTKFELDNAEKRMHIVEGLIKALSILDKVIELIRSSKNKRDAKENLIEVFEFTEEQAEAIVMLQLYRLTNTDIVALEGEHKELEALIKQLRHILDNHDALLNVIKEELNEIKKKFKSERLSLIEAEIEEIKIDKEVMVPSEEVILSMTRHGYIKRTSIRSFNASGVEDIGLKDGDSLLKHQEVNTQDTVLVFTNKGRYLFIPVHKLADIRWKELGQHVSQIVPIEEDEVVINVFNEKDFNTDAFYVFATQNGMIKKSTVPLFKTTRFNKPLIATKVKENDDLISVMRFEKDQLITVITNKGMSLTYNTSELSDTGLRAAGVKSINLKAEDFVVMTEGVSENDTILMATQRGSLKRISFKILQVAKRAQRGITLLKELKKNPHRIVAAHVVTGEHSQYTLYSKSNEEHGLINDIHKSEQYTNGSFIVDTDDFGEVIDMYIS
T3 sequence (P0C1S7 whole entry partner): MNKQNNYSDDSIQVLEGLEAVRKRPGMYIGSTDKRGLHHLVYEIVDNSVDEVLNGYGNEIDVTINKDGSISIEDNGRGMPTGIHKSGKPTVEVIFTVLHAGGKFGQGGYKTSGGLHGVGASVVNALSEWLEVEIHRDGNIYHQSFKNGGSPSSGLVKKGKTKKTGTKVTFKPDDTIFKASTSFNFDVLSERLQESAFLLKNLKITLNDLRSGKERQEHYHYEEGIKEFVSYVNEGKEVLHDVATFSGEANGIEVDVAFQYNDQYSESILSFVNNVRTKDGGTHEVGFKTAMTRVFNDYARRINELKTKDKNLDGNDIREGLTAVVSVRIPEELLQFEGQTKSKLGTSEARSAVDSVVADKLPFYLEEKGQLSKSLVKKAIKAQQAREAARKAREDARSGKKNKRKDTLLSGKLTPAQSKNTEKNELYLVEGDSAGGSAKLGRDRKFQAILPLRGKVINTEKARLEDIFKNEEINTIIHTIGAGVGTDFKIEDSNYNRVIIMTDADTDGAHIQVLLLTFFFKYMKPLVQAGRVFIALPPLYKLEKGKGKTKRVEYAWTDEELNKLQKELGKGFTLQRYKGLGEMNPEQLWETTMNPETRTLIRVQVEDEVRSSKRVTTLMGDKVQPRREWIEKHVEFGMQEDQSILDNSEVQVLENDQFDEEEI

SMILES	remaining activity at 100 µM (human topoisomerase IIα) [%]	IC50 (E. coli topoIV) [µM]	MIC (E. coli N43 (CGSC# 5583); [2]) [mg/L]	IC50 at 72 h ([1]; HUVEC cells (ATCC CRL-1730)) [µM]	IC50 at 72 h ([1]; HepG2 cells (ATCC HB-8065)) [µM]	IC50 (S. aureus topoIV) [µM]	IC50 (S. aureus DNA gyrase) [µM]	IC50 (E. coli DNA gyrase) [µM]	MIC (E. coli D22; [3]) [µM]	MIC (E. coli D22; D22, read-out: MIC E. coli D22) [mg/L]	MIC (S. aureus (ATCC 29213); [4]) [µM]	MIC (S. aureus (ATCC 29213); [5]) [mg/L]	MIC (K. pneumoniae; [6]) [µM]	MIC (K. pneumoniae; [7]) [mg/L]	MIC (E. coli (ATCC 25922); [8]) [µM]	MIC (E. coli (ATCC 25922); [9]) [mg/L]	MIC (A. baumannii; [10]) [µM]	MIC (A. baumannii; [11]) [mg/L]	MIC (E. faecalis RDK 057; [12]) [µM]	MIC (E. faecalis RDK 057; [13]) [mg/L]	also measured
COc1ccc2nccc(CCN3CCC(NCc4ccc(N)cc4)CC3)c2n1 [Compound 9, N-(4-Aminobenzyl)-1-(2-(6-methoxy-1,5-naphthyridin-4-yl)ethyl)piperidin-4-amine]	100 ± 1	5.698 ± 0.014	64	34 ± 16.9	26.1 ± 9.52	> 100	1.38 ± 0.108	> 100	–	–	–	–	–	–	–	–	–	–	–	–	MIC (E. coli D22; D22, 20 h, Table S3, lpxC mutation, read-out: MIC (μM) E. coli D22): > 328 µM; MIC (E. coli D22; D22, lpxC mutation that increases membrane permeability, read-out: MIC E. coli D22): > 128 mg/L; MIC (S. aureus (ATCC 29213); Staphylococcus aureus, ATCC29213, read-out: MIC (μM) S. aureus (ATCC 29213)): 164 µM; MIC (S. aureus (ATCC 29213); Staphylococcus aureus, ATCC29213; read-out: MIC S. aureus (ATCC 29213)): 64 mg/L; MIC (K. pneumoniae; Klebsiella pneumoniae, 20 h; Table S3; read-out: MIC (μM) K. pneumoniae): > 328 µM; MIC (K. pneumoniae; Klebsiella pneumoniae; read-out: MIC K. pneumoniae): > 128 mg/L; MIC (E. coli (ATCC 25922); Escherichia coli, ATCC25922, 20 h; Table S3; read-out: MIC (μM) E. coli (ATCC 25922)): > 328 µM; MIC (E. coli (ATCC 25922); Escherichia coli, ATCC25922; read-out: MIC E. coli (ATCC 25922)): > 128 mg/L; MIC (A. baumannii; Acinetobacter baumannii, 20 h; Table S3; read-out: MIC (μM) A. baumannii): > 328 µM; MIC (A. baumannii; Acinetobacter baumannii; read-out: MIC A. baumannii): > 128 mg/L; MIC (E. faecalis RDK 057; Enterococcus faecalis, RDK057; Table S3; read-out: MIC (μM) E. faecalis DRK 057): > 328 µM; MIC (E. faecalis RDK 057; Enterococcus faecalis, RDK057; read-out: MIC E. faecalis RDK 057): > 128 mg/L; MIC (E. coli ESBL QA-11.3; Escherichia coli, ESBLQA11.3, 20 h; Table S3; read-out: MIC (μM) E. coli ESBL QA:11.3): > 328 µM; MIC (E. coli ESBL QA-11.3; Escherichia coli, ESBLQA11.3; read-out: MIC E. coli ESBL QA-11.3): > 128 mg/L; MIC (E. coli N43 (CGSC# 5583); read-out: MIC (μM) E. coli N43): 164 µM; MIC (P. aeruginosa RDK 184; Pseudomonas aeruginosa, RDK184, 20 h; Table S3; read-out: MIC (μM) P. aeruginosa RDK 184): > 328 µM; MIC (P. aeruginosa RDK 184; Pseudomonas aeruginosa, RDK184; read-out: MIC P. aeruginosa RDK 184): > 128 mg/L
COc1ccc2nccc(OCC3CCC(NCc4ccc(N)cc4)CC3)c2n1 (stereo not drawn) [Compound 10, 4-(((4-(((6-methoxy-1,5-naphthyridin-4-yl)oxy)methyl)cyclohexyl)amino)methyl)aniline]	99 ± 1	> 100	> 128	> 50	> 50	> 100	> 100	> 100	> 328	> 128	> 328	> 128	> 328	> 128	> 328	> 128	> 328	> 128	> 328	> 128	MIC (E. coli ESBL QA-11.3; [14]): > 328 µM; MIC (E. coli ESBL QA-11.3; [15]): > 128 mg/L; MIC (E. coli N43 (CGSC# 5583); [16]): > 328 µM; MIC (P. aeruginosa RDK 184; [17]): > 328 µM; MIC (P. aeruginosa RDK 184; [18]): > 128 mg/L
COc1ccc2nccc(OCC3CCC(NCc4ccc(N)cc4)CO3)c2n1 (stereo not drawn) [Compound 11, N-(4-Aminobenzyl)-6-(((6-methoxy-1,5-naphthyridin-4-yl)oxy)methyl)tetrahydro-2H-pyran-3-amine]	100	> 100	> 128	> 50	> 50	> 100	> 100	> 100	> 328	> 128	> 328	> 128	> 328	> 128	> 328	> 128	> 328	> 128	> 328	> 128	MIC (E. coli ESBL QA-11.3; [14]): > 328 µM; MIC (E. coli ESBL QA-11.3; [15]): > 128 mg/L; MIC (E. coli N43 (CGSC# 5583); [16]): > 328 µM; MIC (P. aeruginosa RDK 184; [17]): > 328 µM; MIC (P. aeruginosa RDK 184; [18]): > 128 mg/L

From article PMC10215804, “Exploring Alternative Pathways to Target Bacterial Type II Topoisomerases Using NBTI Antibacterials: Beyond Halogen-Bonding Interactions” (Antibiotics, 2023)
